In patent publication US8183296B2, “Pesticide phenyloxy substituted phenylamidine derivatives” (Bayer Cropscience AG, priority 2005, dated 2012):

Key:
[1] = logP by HPLC on reversed-phase column (C 18), EEC Directive 79/831 Annex V.A8; format: physicochemical
[2] = system: Aedes aegypti larvae; assay: In vivo protective test on Aedes aegypti (AEDSAE U)
Protocol: In Vivo Protective Test on Aedes Aegypti (AEDSAE U)
To produce a suitable preparation of the active compound, the active compound is mixed with the stated amount of solvent, and the concentrate is diluted with staining water to the desired concentration.
Aedes aegypti larvae are pipetted with a preparation of active ingredient of the desired concentration.
After the specified period of time, mortality in % is determined. 100% means that all larvae have been killed, a 0% means that none of the larvae have been killed.

[3] = logP by HPLC on reversed-phase column (C 18), EEC Directive 79/831 Annex V.A8; format: physicochemical; settings: reversed-phase HPLC column (C 18), C 18, 40° C., 0.1% aqueous formic acid and acetonitrile, read-out: logPa
Protocol: Temperature: 40° C.; Mobile phases: 0.1% aqueous formic acid and acetonitrile; linear gradient from 10% acetonitrile to 90% acetonitrile.
Calibration was carried out using unbranched alkan-2-ones (comprising 3 to 16 carbon atoms) with known logP values (determination of the logP values by the retention times using linear interpolation between two successive alkanones).

[4] = system: Puccinia recondita f. Sp. tritici; assay: In vivo preventive test on Puccinia recondita f. Sp. tritici (wheat brown rust); settings: topical, 240 h, 1000 ppm of active ingredient, evaluated 10 days after inoculation, read-out: efficacy
Protocol: In Vivo Preventive Test on Puccinia recondita f. Sp. tritici (Wheat Brown Rust)
(§1) To produce a suitable preparation of active compound, 1 part by weight of active compound is mixed with the stated amounts of solvent and emulsifier, and the concentrate is diluted with water to the desired concentration.
To test for preventive activity, young plants are […]. After the spray coating has dried on, the plants are sprayed with the preparation of active compound at the stated rate of application. The plants remain for 24 hours in an incubation cabinet at 20° C. and a relative atmospheric humidity of 100%.
The plants are placed in a greenhouse at a temperature of approximately 20° C. and a relative atmospheric humidity of approximately 80% to promote the development of rust pustules.
The test is evaluated 10 days after the inoculation. 0% means an efficacy which corresponds to that of the control, while an efficacy of 100% means that no disease is observed.

[5] = system: Podosphaera leucotricha; assay: In vivo protective test on Podosphaera leucotricha (apples); settings: topical, 240 h, 100 ppm of active ingredient, evaluated 10 days after inoculation, read-out: efficacy
Text: In Vivo Protective Test on Podosphaera leucotricha (Apples) [table] […] To test for protective activity, young plants are sprayed with the preparation of active compound at the stated rate of application. After the spray coating has dried on, the plants are inoculated with an aqueous spore suspension of the causal agent of apple mildew (Podosphaera leucotricha).

[6] = system: Sphaerotheca fuliginea; assay: In vivo protective test on Sphaerotheca fuliginea (cucumbers); settings: Podosphaera fuliginea, topical, 168 h, 100 ppm of active ingredient, evaluated 7 days after inoculation, read-out: efficacy
Protocol: In Vivo Protective Test on Sahaerotheca fuliginea (Cucumbers)
as §1
To test for protect activity, young plants are sprayed with the preparation of active compound at the stated rate of application. After the spray coating has dried on, the plants are inoculated with an aqueous spore suspension of Sphaerotheca fuliginea. The plants are then placed in a greenhouse at approximately 23° C. and a relative atmospheric humidity of approximately 70%.
(§2) The test is evaluated 7 days after the inoculation. 0% means an efficacy which corresponds to that of the control, while an efficacy of 100% means that no disease is observed.

[7] = system: Alternaria solani; assay: In vivo protective test on Alternaria solani (leaf spot of tomato); settings: topical, 168 h, 500 ppm of active ingredient, evaluated 7 days after inoculation, read-out: efficacy
Protocol: In Vivo Protective Test on Alternaria solani (Leaf Spot of Tomato)
as §1
To test for protective activity, young plants are sprayed with the preparation of active compound at the stated rate of application. After the spray coating has dried on, the plants are inoculated with an aqueous spore suspension of Alternatia solani. The plants remain for one day in an incubation cabinet at approximately 20° C. and a relative atmospheric humidity of 100%. Then the plants are placed in an incubation cabinet at approximately 20° C. and a relative atmospheric humidity of 96%.
The test is evaluated 7 days after the inoculation. 0% means an efficacy which corresponds to that of the control while an efficacy of 100% means that no disease is observed.

[8] = system: Erysiphe graminis f.sp. hordei; assay: In vivo preventive test on Erysiphe graminis (powdery mildew on barley); settings: Blumeria graminis, topical, 168 h, 1000 ppm of active ingredient, evaluated 7 days after inoculation, read-out: efficacy
Protocol: In Vivo Preventive Test on Erysiphe gramini (Powdery Mildew on Barley)
To produce a suitable preparation of active compound, 1 part by weight of active compound or active compound combination is mixed with the stated amounts of solvent and emulsifier, and the concentrate is diluted with water to the desired concentration.
To test for preventive activity, young plants are sprayed with the preparation of active compound or active compound combination at the stated rate of application.
After the spray coating has dried on, the plants are dusted with spores of Erysiphe graminis f.sp. hordei
The plants are placed in a greenhouse at a temperature of approximately 20° C. and a relative atmospheric humidity of approximately 80% to promote the development of mildew pustules.
as §2

Compound | log P (pH 2.3) [1] | chromatographic logP [3] | activity (mortality of larvae) [2] | pest or weed control at 1000 ppm [4] [%] | pest or weed control at 100 ppm [5] [%] | pest or weed control at 100 ppm [6] [%] | pest or weed control at 500 ppm [7] [%] | pest or weed control at 1000 ppm [8] [%]
Cc1cc(Oc2ccc(Cl)c(C(C)(C)C)c2)c(Cl)cc1N [4-(3-t-butyl-4-chlorohenoxy)-5-chloro-2-methylaniline] | 5.68 | – | – | – | – | – | – | –
Cc1cc([N+](=O)[O-])c(C)cc1Oc1ccc(Cl)c(C(C)(C)C)c1 [4-(3-t-butyl-4-chlorphenoxy)-2,5-dimethylnitrobenzene] | 6.32 | – | – | – | – | – | – | –
Cc1cc(Oc2ccc(Cl)c(C(C)(C)C)c2)c(C)cc1N [4-(3-t-butyl-4-chlorphenoxy)-2,5-xylidine] | 4.38 | – | – | – | – | – | – | –
Cc1cc(Oc2ccc(Cl)c(C(C)(C)C)c2)c(Cl)cc1[N+](=O)[O-] [4-(3-t-butyl-4-chlorphenoxy)-5-chloro-2-methylnitrobenzene] | 6.32 | – | – | – | – | – | – | –
CCN(C)C=Nc1cc(Cl)c(Oc2ccc(Cl)c(C(C)(C)C)c2)cc1C [Example 1, N-Ethyl-N-methyl-N′-[4-(3-t-butyl-4-chlorphenoxy)-5-chloro-2-methylphenyl]formamidine] | 2.80 | – | – | – | – | – | – | –

More lines, main results first:

log P (pH 2.3) [1] | chromatographic logP [3] | Compound | activity (mortality of larvae) [2] | pest or weed control at 1000 ppm [4] [%] | pest or weed control at 100 ppm [5] [%] | pest or weed control at 100 ppm [6] [%] | pest or weed control at 500 ppm [7] [%] | pest or weed control at 1000 ppm [8] [%]
3.04 | – | CCN(C)C=Nc1cc(C)c(Oc2ccc(Cl)c(C(C)(C)C)c2)cc1C [Example 2, N-Ethyl-N-methyl-N′-[4-(3-t-butyl-4-chlorphenoxy)-2,5-xylyl]formamidine] | – | – | – | – | – | –
– | 2.75 | CCN(C)/C=N/c1cc(C)c(Oc2ccc(Cl)c(C(C)C)c2)cc1C [Example 3] | good activity | ≥ 70 | ≥ 70 | ≥ 70 | ≥ 70 | ≥ 70
– | 3.42 | Cc1cc(Oc2ccc(Cl)c(C(C)(C)C)c2)c(C)cc1/N=C/N(C)C(C)C [Example 9] | – | ≥ 70 | ≥ 70 | ≥ 70 | ≥ 70 | ≥ 70
– | 2.78 | CCc1cc(Oc2cc(C)c(/N=C/N(C)CC)cc2Cl)ccc1Cl [Example 13] | – | ≥ 70 | ≥ 70 | ≥ 70 | ≥ 70 | ≥ 70
– | 2.76 | CCCN(C)/C=N/c1cc(C)c(Oc2ccc(Cl)c(CC)c2)cc1C [Example 14] | – | ≥ 70 | ≥ 70 | ≥ 70 | ≥ 70 | ≥ 70
